Reference: US20030109529A1, “Use of s-triazines for treating Apicomplexan parasitic infections” (priority 1999, published 2003)

Key:
[1] = system: wild type Plasmodium falciparum; assay: In vitro red blood cell culture infected with wild type Plasmodium falciparum, percent RBCs infected; assay type: cell-based; details: for effectiveness compared with chloroquine (text to Table 2): 2.0-0.02 μM
Procedure: The in vitro method used to test the anti-malarial effectiveness of various s-triazines was adapted from Trager, 1994, Methods in Cell Biology Vol 45:7-26.
(§1) Briefly, a red blood cell suspension at a malarial (wild type Plasmodium falciparum) infection rate of approximately 1% was added to each well of a 96 well micro titer plate. The test compound was added to the cultures at final concentrations of 2.0, 0.2 or 0.02 μM. and incubated in an environment of 5% CO2, 5% O2 and 90% N2 at 37° C. Every 24 hrs the dish was removed, 100 μl of spent medium removed and 100 μl of fresh, compound containing-medium was added back to each well. This procedure was repeated daily.
(§2) At 48 hrs and again at 96 hrs, blood smears were made from each well and 500 Red Blood Cells (RBCs) were counted and inspected for malarial infection. The percent infection rate was then determined for each experimental condition tested.
(§3) Malaria parasite (P. falciparum) was grown in culture as described previously. At 48 hours and 96 hours of treatment, red blood cells were taken from culture and the percent red blood cells infected with the parasite was determined by microscopic examination.
The data in Table 2 represent percent red blood cell (RBC) infection rate at 48 hrs of treatment with the antimalarial test compound. Control cultures were 35% RBC infected.

[2] = system: mefloquine resistant P. falciparum (Mfl res); assay: In vitro RBC culture, mefloquine resistant P. falciparum; assay type: cell-based, Plasmodium falciparum; details: for percentage of RBCs infected with mefloquine-resistant P. falciparum: Example 3, 48 hrs or 96 hrs after treatment; for Red Blood Cell Infection Rate: mefloquine-resistant, 96 hrs of treatment, 0.02 μM, control 24
Procedure: as §1, §2
The procedure set forth in Example 1 is utilized for testing the effectiveness of mefloquine and atrazine against mefloquine-resistant P. falciparum.
as §3

[3] = system: chloroquine resistant P. falciparum (Clq res); assay: In vitro RBC culture, chloroquine resistant P. falciparum; assay type: cell-based, Plasmodium falciparum; details: for percentage of RBCs infected with chloroquine-resistant P. falciparum: Example 2, 48 hrs or 96 hrs after treatment; for Red Blood Cell Infection Rate: chloroquine-resistant, 96 hrs of treatment, 0.02 μM, control 28
[4] = system: multi-drug resistant P. falciparum (MDR); assay: In vitro RBC culture, multi-drug resistant P. falciparum; assay type: cell-based, Plasmodium falciparum; details: for Red Blood Cell Infection Rate: multidrug-resistant, 96 hrs of treatment, 0.02 μM, control 25
Procedure: as §1, §2, §3

[5] = system: antifolate-resistant P. falciparum; assay: In vitro RBC culture, antifolate-resistant P. falciparum; assay type: cell-based, Plasmodium falciparum; details: Example 4, 48 hrs or 96 hrs after treatment
Procedure: as §1, §2
The procedure set forth in Example 1 is utilized for testing the effectiveness of triazine and atrazine against antifolate-resistant P. falciparum.

[6] = system: wild type rodent malaria (Plasmodium berghi); assay: In vitro evaluation against wild type rodent malaria; assay type: cell-based; details: Experiment 5, 48 hrs or 96 hrs after treatment
Procedure: as §1, §2
The procedure set forth in Example 1 is utilized for testing compounds against wild type rodent malaria (Plasmodium berghi).

Plasmodium berghi = assay: In vivo evaluation against Plasmodium berghi in Lewis rats, intravenous treatment; parameters: species or system rat; details: 20 mg/kg I.V., 24 and 48 hrs
Procedure: In vivo testing was performed using juvenile female Lewis rats. Rats were inoculated intraperitoneally with 30,000,000 Plasmodium berghi infected RBCs. Rats were bled daily from the tail vein and, when parasitemia reached 1-3%, therapy was begun.
Blood smears were obtained at 24 and 48 hrs. The percent RBCs infected was then calculated after counting and inspecting 500 RBCs for each rat.

Toxoplasma gondii = assay: In vitro anti-Toxoplasma test in human foreskin fibroblasts; assay type: cell-based; details: 24 hrs after treatment
Procedure: Human foreskin fibroblasts are grown to confluency in 12 well plates. Next, Toxoplasma gondii is added to the plates. The resultant cultures are treated with the test compound 24 hrs later. […]

wild type yeast = assay: Yeast assay for antifolate activity, wild type yeast; assay type: cell-based, Saccharomyces cerevisiae; details: 48 hours of treatment
[7] = system: yeast transfected with malarial dihydrofolate reductase (folate sensitive); assay: Yeast assay for antifolate activity, folate sensitive yeast; assay type: cell-based, Saccharomyces cerevisiae; details: 48 hours of treatment
Procedure: (§4) We have established a in vitro yeast assay model for determining sensitivity to antifolate anti-malarials.
(§5) Saccharomyces cerevisiae was grown in culture and after 48 hours of treatment as described below the growth of the yeast was determined. Control (i.e., yeast grown with no treatment) is considered to be 100% growth. Drug treatment was then related to the controls as a percent of control growth. S. cerevisiae types tested included wild type yeast, yeast made sensitive to antifolate antimalarials by transfecting yeast with malarial dihydrofolate reductase (folate sensitive or folate sen), yeast transfected but not sensitive to antifolate antimalarials (folate insensitive or folate insen).

[8] = system: yeast transfected but not sensitive to antifolate antimalarials (folate insensitive); assay: Yeast assay for antifolate activity, folate insensitive yeast; assay type: cell-based, Saccharomyces cerevisiae; details: 48 hours of treatment
Procedure: as §4, §5

calf DHFR = target: T1, calf DHFR (Bos taurus, UniProt P00376); assay: DHFR enzyme assay, calf liver homogenate; assay type: biochemical
T1 construct: tested using homogenates of calf liver, rat liver and cultures of P. falciparum; from tissue; host or cells: calf liver homogenate
T1 sequence (P00376 1-187): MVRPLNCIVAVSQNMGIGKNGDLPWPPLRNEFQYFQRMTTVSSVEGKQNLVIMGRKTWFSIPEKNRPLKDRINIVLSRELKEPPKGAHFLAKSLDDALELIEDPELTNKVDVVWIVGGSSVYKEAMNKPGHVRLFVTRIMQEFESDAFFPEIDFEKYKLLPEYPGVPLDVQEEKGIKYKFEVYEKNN
Procedure: (§6) The ability of atrazine to inhibit dihydrofolate reductase (DHFR) is also tested using homogenates of calf liver, rat liver and cultures of P. falciparum. Atrazine's ability to inhibit mammalian DHFR (i.e., calf DHFR and rat DHFR) as well as malarial DHFR is determined using standard enzyme assays and the Michaelis-Menton analysis. The Michaelis-Menton hypothesis states that a complex is formed between an enzyme and its substrate and that the complex then dissociates to yield free enzyme and the reaction products, with the rate of dissociation determining the overall rate of substrate-product conversion. For a more complete review of the Michaelis constant, see Benet et al., 1996, Pharmacokinetics, Chapter 1:3-27, In Goodman & Gilman's The Pharmacological Basis of Therapeutics, Ninth Edition, McGraw-Hill; and Ross, 1996, Pharmacodynamics, Chapter 2:29-41, Id.

rat DHFR = target: T2, rat DHFR (Rattus norvegicus, UniProt Q920D2); assay: DHFR enzyme assay, rat liver homogenate; assay type: biochemical
T2 construct: tested using homogenates of calf liver, rat liver and cultures of P. falciparum; from tissue; host or cells: rat liver homogenate
T2 sequence (Q920D2 1-187): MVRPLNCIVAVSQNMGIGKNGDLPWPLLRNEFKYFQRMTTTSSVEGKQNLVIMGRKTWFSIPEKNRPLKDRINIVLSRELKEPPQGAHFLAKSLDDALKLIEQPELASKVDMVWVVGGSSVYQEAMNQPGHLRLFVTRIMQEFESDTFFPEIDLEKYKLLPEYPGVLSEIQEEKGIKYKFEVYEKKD
Procedure: as §6

malarial DHFR = assay: DHFR enzyme assay, cultures of P. falciparum; assay type: biochemical
Procedure: as §6

P. berghei = assay: In vivo efficacy against P. berghei in rats, single oral dose; parameters: species or system rat; details: single oral dose (Chloroquine 20 mg/kg, Atrazine 100 mg/kg) 4 h after inoculation; for Parasitemia Day 4: ethanol control 24%; for Parasitemia Day 11: ethanol control 42%
Procedure: Rats weighing 60-70 gms were inoculated with P. berghei infected rat red blood cells. […] Blood was obtained 4 days and 11 days later and parasitemia assessed using light microscopy of blood smears. The percent parasitemia (i.e., the presence of parasites in the blood) was then determined for each group and the data are summarized in the table below: […]

P. falciparum = assay: Isobologram analysis of chloroquine and atrazine in vitro against P. falciparum; assay type: cell-based, Plasmodium falciparum; details: each drug alone at its ID50, or combinations of the stated fractions of each ID50
Procedure: Drugs can interact in additive, antagonistic or synergistic manner. See Berenbaum, J. Infect. Dis., 137:122-130, 1978. The isobologram assay permits determination of the type of interaction that occurs between drugs of interest. The ID50, or […], for both drugs was calculated.
Next, the drugs were tested in vitro at the ID50 for each drug alone and various combinations of drugs as described below:
These combinations of drugs were tested in vitro against P. falciparum and the data analyzed.

[9] = system: wild type Plasmodium falciparum; assay: In vitro red blood cell culture infected with wild type Plasmodium falciparum, percent RBCs infected; assay type: cell-based; details: 0.006 μM to 0.4 μM
[10] = rats given a single injection; cited from earlier work
[11] = 48 hrs of treatment, 0.02 μM, control 35%
[12] = 48 hrs of treatment, 0.2 μM, control 35%
[13] = 48 hrs of treatment, 2.0 μM, control 35%
[14] = wild type, 96 hrs of treatment, 0.02 μM, control 18

CCNc1nc(Cl)nc(NC(C)C)n1 [atrazine, 2-chloro-4-ethylamino-6-isopropylamino-s-triazine]
Red Blood Cell Infection Rate [1, 11]: 3%
Red Blood Cell Infection Rate [1, 12]: 0%
Red Blood Cell Infection Rate [1, 13]: 0%
effectiveness compared with chloroquine (text to Table 2) ([1]; 48 hrs of treatment): substantially similar in effectiveness as chloroquine
percentage of RBCs infected with P. falciparum (FIGS. 1-4) ([1]; low concentrations, 48 hrs or 96 hrs after treatment): relatively low percentage of the RBCs being infected
Red Blood Cell Infection Rate [1, 14]: 3%
percentage of RBCs infected with mefloquine-resistant P. falciparum [2]: relatively low percentage of the RBCs being infected
effectiveness against resistant parasite (FIGS. 8, 9) ([2]; mefloquine resistant, 48 and 96 hours): effective against several classic forms of resistance
Red Blood Cell Infection Rate [2]: 3%
percentage of RBCs infected with chloroquine-resistant P. falciparum [3]: relatively low percentage of the RBCs being infected
effectiveness against resistant parasite (FIGS. 8, 9) ([3]; chloroquine resistant, 48 and 96 hours): effective against several classic forms of resistance
Red Blood Cell Infection Rate [3]: 4%
effectiveness against resistant parasite (FIGS. 8, 9) ([4]; multi-drug resistant, 48 and 96 hours): effective against several classic forms of resistance
Red Blood Cell Infection Rate [4]: 3%
percentage of RBCs infected with antifolate-resistant P. falciparum [5]: relatively low percentage of the RBCs being infected
percentage of RBCs infected with P. berghi [6]: relatively low percentage of the RBCs being infected
in vivo percentage of RBCs infected with P. berghi compared to non-treated controls (FIG. 6) (Plasmodium berghi): disease dramatically reduced
percentage of fibroblast cells infected with T. gondii (Toxoplasma gondii): relatively low percentage of the cells being infected
yeast growth (FIG. 7) (wild type yeast): Neither chloroquine (Clq) nor atrazine affected growth
yeast growth (FIG. 7) [7]: Neither chloroquine (Clq) nor atrazine affected growth
yeast growth (FIG. 7) [8]: Neither chloroquine (Clq) nor atrazine affected growth
inhibition of DHFR (calf DHFR): does not inhibit DHFR
inhibition of DHFR (rat DHFR): does not inhibit DHFR
inhibition of DHFR (malarial DHFR): does not inhibit DHFR
Parasitemia Day 4 (P. berghei): 6.0%
Parasitemia Day 11 (P. berghei): 10.5%
Percent Growth Inhibition (P. falciparum): 58%
effectiveness compared with chloroquine (FIG. 5) [9]: as effective and potent as chloroquine
LD50 [10]: ~3000 mg/kg

CCNc1nc(NC(C)C)nc(SC)n1 [ametryn, 2-ethylamino-4-isopropylamino-6-thiomethoxy-s-triazine]
Red Blood Cell Infection Rate [1, 11]: 20%
Red Blood Cell Infection Rate [1, 12]: 11%
Red Blood Cell Infection Rate [1, 13]: 10%
effectiveness compared with chloroquine (text to Table 2) ([1]; 48 hrs of treatment): less effective

CC(C)Nc1nc(Cl)nc(NC(C)C)n1 [propazine, 2-chloro-4,6-di(isopropylamino)-s-triazine]
Red Blood Cell Infection Rate [1, 11]: 5%
Red Blood Cell Infection Rate [1, 12]: 1%
Red Blood Cell Infection Rate [1, 13]: 1%
effectiveness compared with chloroquine (text to Table 2) ([1]; 48 hrs of treatment): substantially similar in effectiveness as chloroquine

CCNc1nc(Cl)nc(NCC)n1 [simazine, 2-chloro-4,6-di(ethylamino)-s-triazine]
Red Blood Cell Infection Rate [1, 11]: 3%
Red Blood Cell Infection Rate [1, 12]: 0%
Red Blood Cell Infection Rate [1, 13]: 0%
effectiveness compared with chloroquine (text to Table 2) ([1]; 48 hrs of treatment): substantially similar in effectiveness as chloroquine

c1ncncn1 [triazine]
percentage of RBCs infected with antifolate-resistant P. falciparum [5]: significantly higher level of RBCs being infected

OC(c1cc(C(F)(F)F)nc2c(C(F)(F)F)cccc12)C1CCCCN1 (stereo not shown) [mefloquine, reference compound]
percentage of RBCs infected with mefloquine-resistant P. falciparum [2]: significantly higher level of RBCs being infected

CCNc1nc(Cl)nc(NC(C)(C)C#N)n1 [cyanazine, 2-[[4-chloro-6-(ethylamino)-s-triazin-2-yl]amino]-2-methyl propionitrile]
Red Blood Cell Infection Rate [1, 11]: 18%
Red Blood Cell Infection Rate [1, 12]: 17%
Red Blood Cell Infection Rate [1, 13]: 16%
effectiveness compared with chloroquine (text to Table 2) ([1]; 48 hrs of treatment): less effective

CCN(CC)CCCC(C)Nc1ccnc2cc(Cl)ccc12 (stereo not shown) [chloroquine, reference compound]
Red Blood Cell Infection Rate [1, 11]: 4%
Red Blood Cell Infection Rate [1, 12]: 0%
Red Blood Cell Infection Rate [1, 13]: 0%
Red Blood Cell Infection Rate [1, 14]: 3%
Red Blood Cell Infection Rate [2]: 13%
percentage of RBCs infected with chloroquine-resistant P. falciparum [3]: significantly higher level of RBCs being infected
Red Blood Cell Infection Rate [3]: 28%
Red Blood Cell Infection Rate [4]: 22%
in vivo percentage of RBCs infected with P. berghi compared to non-treated controls (FIG. 6) (Plasmodium berghi): disease dramatically reduced
yeast growth (FIG. 7) [7]: Neither chloroquine (Clq) nor atrazine affected growth
yeast growth (FIG. 7) [8]: Neither chloroquine (Clq) nor atrazine affected growth
Parasitemia Day 4 (P. berghei): 5.8%
Parasitemia Day 11 (P. berghei): 11%
Percent Growth Inhibition (P. falciparum): 60%
